From ChEMBL document CHEMBL1135292, “A practical synthesis of (S) 3-tert-butoxycarbonylamino-2-oxo-2,3,4,5-tetrahydro-1,5-benzodiazepine-1-acetic acid methyl ester as a conformationally restricted dipeptido-mimetic for caspase-1 (ICE) inhibitors” (Bioorg Med Chem Lett, 2002) come the findings set out here.

For one test, the species on record is Homo sapiens. In words: Ability to block the release of interleukin-1 beta from human whole blood stimulated with heat-killed staphylococcus aureus. The class given is functional, organism-based.
The target in the next test is T1, Caspase-1 (Homo sapiens, UniProt P29466).
T1 sequence (P29466 whole entry): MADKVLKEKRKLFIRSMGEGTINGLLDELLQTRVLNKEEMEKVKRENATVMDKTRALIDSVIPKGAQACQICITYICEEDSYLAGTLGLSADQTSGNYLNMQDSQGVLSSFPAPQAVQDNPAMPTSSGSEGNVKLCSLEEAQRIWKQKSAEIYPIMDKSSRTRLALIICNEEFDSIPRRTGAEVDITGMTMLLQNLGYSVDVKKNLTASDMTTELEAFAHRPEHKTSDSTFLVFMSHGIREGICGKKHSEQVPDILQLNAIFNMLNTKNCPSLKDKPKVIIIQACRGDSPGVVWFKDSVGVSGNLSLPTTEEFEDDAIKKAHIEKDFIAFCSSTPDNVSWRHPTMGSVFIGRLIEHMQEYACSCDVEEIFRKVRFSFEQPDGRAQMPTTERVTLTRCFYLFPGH
In words: Compound was tested for inhibitory activity against IL-1 beta converting enzyme.

As to `CC(=O)N[C@@H](Cc1ccc(O)cc1)C(=O)N[C@H](C(=O)N[C@@H](C)C(=O)N[C@H]1CC(=O)OC1O)C(C)C` (some centres not stated), the IC50 – broadly, the concentration that gives 50% inhibition – in the test listed under Homo sapiens came to 4000 nM.

Regarding `O=C(CN1C(=O)[C@@H](NC(=O)c2ccccc2)CN(C(=O)CCc2ccccc2)c2ccccc21)N[C@H]1CC(=O)OC1O` (some centres not stated), the Ki – broadly, the dissociation constant of the complex between target and ligand, obtained from inhibition or displacement – on Caspase-1 was determined as 90 nM.
